Measured values: patent publication US20130210823A1, “METHODS FOR C[…]” (SYNGENTA PARTICIPATIONS AG, priority 2010, published 2013)

Tested on: Varroa destructor
Experiment: Varroa mite contact test on Potter-tower treated Petri dishes
Type: in vivo
Conditions: adult V. destructor, contact with spray deposit, concentration of formulation 1 × 10^−−4 g, assessed after 72 h
Source text: Varroa mites came from bee colonies provided by a beekeeper. The mite population is kept in a dedicated apiary. For screening needs adults are collected on the same day as the beginning of experiment, either in beehive cells containing brood of worker bees or drones, or directly on bees emerging during collection.
Bee nymphs needed to feed adults of Varroa mites during experiments are choosen within the frames from which Varroa is also collected. They are collected at the stage of nymph with white or pink coloured eyes according methology described by Rembold et Kremer (Characterization of postembryonic developmental stages of the female castes of the honey bee, Apis mellifera L. Apidologie 11: 29-38).
3 cm diameter Petri dishes were used as confinement material of Varroa mites during experiments. Covers with wire mesh were put on the top of each Petri dish in order to avoid the mites to run away but also to keep favorable humidity for the bee nymph. […]
After treatment of Petri dishes, five (5) adults of V. destructor collected from the brood were placed in the petri dish. […] During a test 20 Varroa adults are tested for a given compound (4 dishes of 5 individuals).Mortality levels are assessed after 72 h (mites which are able to move their legs are considered as alive). […]

## CC1=NNC(=O)N(N=Cc2cccnc2)C1 [pymetrozine, 2,3,4,5-tetrahydro-3-oxo-4-[(pyridin-3-yl)methyleneamino]-6-methyl-1,2,4-triazine]
  % mortality of Varroa: 90%
